How the values were obtained:
Format in all cases: cell-based
MDA-MB-468 = test: Proliferation assay, Method 2 (Vybrant MTT); settings: Homo sapiens, MDA-MB-468 breast tumour cell line
NCI-H23 = test: Proliferation assay, Method 2 (Vybrant MTT); settings: Homo sapiens, NCI-H23 (non-small-cell lung carcinoma)
NCI-H810 = test: Proliferation assay, Method 2 (Vybrant MTT); settings: Homo sapiens, NCI-H810 (non-small-cell lung carcinoma)
NCI-H441 = test: Proliferation assay, Method 2 (Vybrant MTT); settings: Homo sapiens, NCI-H441 (papillary lung carcinoma)
NCI-H2228 = test: Proliferation assay, Method 2 (Vybrant MTT); settings: Homo sapiens, NCI-H2228 (non-small-cell lung carcinoma)
MDA-MB-231 = test: Proliferation assay, Method 2 (Vybrant MTT); settings: Homo sapiens, MDA-MB-231 breast tumour cell line
NCI-H358 = test: Proliferation assay, Method 2 (Vybrant MTT); settings: Homo sapiens, NCI-H358 (non-small-cell lung carcinoma)
NCI-H1975 = test: Proliferation assay (listed under Method 1 and Method 2); settings: Homo sapiens; NCI-H1975 (non-small-cell lung carcinoma); method 1 or 2
Description: (§1) This assay was used for the following cell lines: MCF 10A, SK-BR-3, MCF7, HCT 116, HT-29, SW480, Caco-2, MIAPaCa-2, DU145, PC3, HeLa, Caki2, 786-0, A-375, NCI-H460, NCI-H69, NCI-H1975, A549.
(§2) Cultivated human tumour cells (originally obtained from ATCC, HeLa-MaTu and HeLa-MaTu-ADR, originally obtained from Epo GmbH, Berlin) were plated in a density of from 1000 to 5000 cells/measurement point, depending on the growth rate of the cell line, in a 96-well multititre plate in 200 μl of growth medium (DMEM/HAMS F12, 2 mM L-glutamine, 10% foetal calf serum). After 24 hours, the cells of one plate (zero-point plate) were stained with crystal violet (see below), while the medium of the other plates was replaced by fresh culture medium (200 μl) with added test substances in various concentrations (0 μM, and in the range of 0.01-30 μM; the final concentration of the solvent dimethyl sulphoxide was 0.5%). The cells were incubated in the presence of the test substances for 4 days. Cell proliferation was determined by staining the cells with crystal violet: the cells were fixated by addition of 20 μl/measuring point of an 11% strength glutaraldehyde solution for 15 min at room temperature. After the fixated cells had been washed three times with water, the plates were dried at room temperature. The cells were stained by addition of 100 μl/measuring point of a 0.1% strength crystal violet solution (pH adjusted to pH 3 by addition of acetic acid). After the stained cells had been washed three times with water, the plates were dried at room temperature. The dye was dissolved by addition of 100 μl/measuring point of a 10% strength acetic acid solution. The absorption was determined photometrically at a wavelength of 595 nm. The change in percent of the cell growth was calculated by normalizing the measured values to the absorption values of the zero-point plate (=0%) and the absorption of the untreated (0 μM) cells (=100%). The measured data were normalized to 0% inhibition (cell proliferation without inhibitor) and 100% inhibition (zero-point plate). The IC50 values were determined using a 4-parameter fit with the aid of proprietary software.

MCF 10A = test: as above; settings: Homo sapiens; MCF 10A breast cell line; method 1 or 2
Description: as §1, §2

A549 = test: as above; settings: Homo sapiens; A549 (non-small-cell lung carcinoma); method 1 or 2
Description: as §1, §2

NCI-H460 = test: as above; settings: Homo sapiens; NCI-H460 (non-small-cell lung carcinoma); method 1 or 2
Description: as §1, §2

NCI-H69 = test: as above; settings: Homo sapiens; NCI-H69 (small-cell lung carcinoma); method 1 or 2
Description: as §1, §2

KPL-1 = test: Proliferation assay, Method 2 (Vybrant MTT); settings: Homo sapiens, KPL-1 breast tumour cell line
NCI-H661 = test: Proliferation assay, Method 2 (Vybrant MTT); settings: Homo sapiens, NCI-H661 (non-small-cell lung carcinoma)
BT-474 = test: Proliferation assay, Method 2 (Vybrant MTT); settings: Homo sapiens, BT-474 breast tumour cell line
NCI-H1703 = test: Proliferation assay, Method 2 (Vybrant MTT); settings: Homo sapiens, NCI-H1703 (non-small-cell lung carcinoma)
Hs 578T = test: Proliferation assay, Method 2 (Vybrant MTT); settings: Homo sapiens, Hs 578T breast tumour cell line
T-47D = test: Proliferation assay, Method 2 (Vybrant MTT); settings: Homo sapiens, T47D, T-47D breast tumour cell line
SK-MES-1 = test: Proliferation assay, Method 2 (Vybrant MTT); settings: Homo sapiens, SK-MES-1 (squamous-cell carcinoma)
NCI-H1048 = test: Proliferation assay, Method 2 (Vybrant MTT); settings: Homo sapiens, NCI-H1048 (small-cell lung carcinoma)
ZR-75-1 = test: Proliferation assay, Method 2 (Vybrant MTT); settings: Homo sapiens, ZR-75-1 breast tumour cell line
BT-549 = test: Proliferation assay, Method 2 (Vybrant MTT); settings: Homo sapiens, BT-549 breast tumour cell line
NCI-H226 = test: Proliferation assay, Method 2 (Vybrant MTT); settings: Homo sapiens, NCI-H226 (mesothelioma)
DU-4475 = test: Proliferation assay, Method 2 (Vybrant MTT); settings: Homo sapiens, DU-4475 breast tumour cell line
MDA-MB-453 = test: Proliferation assay, Method 2 (Vybrant MTT); settings: Homo sapiens, MDA-MB-453 breast tumour cell line
NCI-H2347 = test: Proliferation assay, Method 2 (Vybrant MTT); settings: Homo sapiens, NCI-H2347 (non-small-cell lung carcinoma)
ChaGo-K-1 = test: Proliferation assay, Method 2 (Vybrant MTT); settings: Homo sapiens, ChaGo-K-1 (undifferentiated bronchial carcinoma)
NCI-H1581 = test: Proliferation assay, Method 2 (Vybrant MTT); settings: Homo sapiens, NCI-H1581 (non-small-cell lung carcinoma)
NCI-H1793 = test: Proliferation assay, Method 2 (Vybrant MTT); settings: Homo sapiens, NCI-H1793 (non-small-cell lung carcinoma)
MIAPaCa-2 = test: Proliferation assay, Method 1 (crystal violet); settings: Homo sapiens, MIA PaCa-2, 96 h, MIAPaCa-2 pancreas carcinoma cell line, 4 days
Description: as §1, §2

HeLa = test: Proliferation assay, Method 1 (crystal violet); settings: Homo sapiens, 96 h, HeLa cervix carcinoma cell line, 4 days
Description: as §1, §2

HT-29 = test: Proliferation assay, Method 1 (crystal violet); settings: Homo sapiens, 96 h, HT-29 colon carcinoma cell line, 4 days
Description: as §1, §2

786-O = test: Proliferation assay, Method 1 (crystal violet); settings: Homo sapiens, 786-0, 96 h, 786-O renal carcinoma cell line, 4 days
Description: as §1, §2

PC3 = test: Proliferation assay, Method 1 (crystal violet); settings: Homo sapiens, PC-3, 96 h, PC3 prostate carcinoma cell line, 4 days
Description: as §1, §2

MCF7 = test: Proliferation assay, Method 1 (crystal violet); settings: Homo sapiens, 96 h, MCF7 breast tumour cell line, 4 days
Description: as §1, §2

DU145 = test: Proliferation assay, Method 1 (crystal violet); settings: Homo sapiens, DU-145, 96 h, DU145 prostate carcinoma cell line, 4 days
Description: as §1, §2

A-375 = test: Proliferation assay, Method 1 (crystal violet); settings: Homo sapiens, 96 h, A-375 melanoma cell line, 4 days
Description: as §1, §2

SK-BR-3 = test: Proliferation assay, Method 1 (crystal violet); settings: Homo sapiens, 96 h, SK-BR-3 breast tumour cell line, 4 days
Description: as §1, §2

Caki2 = test: Proliferation assay, Method 1 (crystal violet); settings: Homo sapiens, CAKI-2, 96 h, Caki2 renal carcinoma cell line, 4 days
Description: as §1, §2

SW480 = test: Proliferation assay, Method 1 (crystal violet); settings: Homo sapiens, 96 h, SW480 colon carcinoma cell line, 4 days
Description: as §1, §2

Caco-2 = test: Proliferation assay, Method 1 (crystal violet); settings: Homo sapiens, 96 h, Caco-2 colon carcinoma cell line, 4 days
Description: as §1, §2

HCT 116 = test: Proliferation assay, Method 1 (crystal violet); settings: Homo sapiens, 96 h, HCT 116 colon carcinoma cell line, 4 days
Description: as §1, §2

NCI-H2030 = test: Proliferation assay, Method 2 (Vybrant MTT); settings: Homo sapiens, NCI-H2030 (non-small-cell lung carcinoma)
NCI-H1437 = test: Proliferation assay, Method 2 (Vybrant MTT); settings: Homo sapiens, NCI-H1437 (non-small-cell lung carcinoma)
BT-20 = test: Proliferation assay, Method 2 (Vybrant MTT); settings: Homo sapiens, BT-20 breast tumour cell line
MDA-MB-435s = test: Proliferation assay, Method 2 (Vybrant MTT); settings: Homo sapiens, MDA-MB-435s breast tumour cell line
NCI-H1563 = test: Proliferation assay, Method 2 (Vybrant MTT); settings: Homo sapiens, NCI-H1563 (non-small-cell lung carcinoma)
NCI-H522 = test: Proliferation assay, Method 2 (Vybrant MTT); settings: Homo sapiens, NCI-H522 (non-small-cell lung carcinoma)
EVSA-T = test: Proliferation assay, Method 2 (Vybrant MTT); settings: Homo sapiens, EVSA-T breast tumour cell line
NCI-H2170 = test: Proliferation assay, Method 2 (Vybrant MTT); settings: Homo sapiens
NCI-H1838 = test: Proliferation assay, Method 2 (Vybrant MTT); settings: Homo sapiens, NCI-H1838 (non-small-cell lung carcinoma)

IC50 (MDA-MB-468): 28.8 nM
IC50 (NCI-H23): 45.4 nM
IC50 (NCI-H810): 9.01 nM
IC50 (NCI-H441): 10 nM
IC50 (NCI-H2228): 52.1 nM
IC50 (MDA-MB-231): 20.2 nM
IC50 (NCI-H358): 19.4 nM
IC50 (NCI-H1975): 24 nM
IC50 (A549): 31 nM
IC50 (NCI-H460): 27 nM
IC50 (NCI-H69): 27 nM
IC50 (NCI-H661): 53.1 nM
IC50 (BT-474): 42.6 nM
IC50 (NCI-H1703): 53.6 nM
IC50 (T-47D): 33.8 nM
IC50 (SK-MES-1): 26.5 nM
IC50 (NCI-H1048): 25 nM
IC50 (BT-549): 84.1 nM
IC50 (NCI-H226): 54.6 nM
IC50 (MDA-MB-453): 15.1 nM
IC50 (NCI-H2347): 28 nM
IC50 (NCI-H1581): 53.8 nM
IC50 (NCI-H1793): 22.5 nM
IC50 (MIAPaCa-2): 21 nM
IC50 (HeLa): 12 nM
IC50 (HT-29): 29 nM
IC50 (786-O): 20 nM
IC50 (PC3): 25 nM
IC50 (MCF7): 15 nM
IC50 (DU145): 8 nM
IC50 (A-375): 14 nM
IC50 (SK-BR-3): 13 nM
IC50 (SW480): 15 nM
IC50 (Caco-2): 16 nM
IC50 (HCT 116): 18 nM
IC50 (NCI-H2030): 17.7 nM
IC50 (NCI-H1437): 69.9 nM
IC50 (BT-20): 38.1 nM
IC50 (MDA-MB-435s): 36.4 nM
IC50 (NCI-H1563): 59.1 nM
IC50 (NCI-H522): 65.4 nM
IC50 (NCI-H2170): 48.7 nM
IC50 (NCI-H1838): 15.9 nM
Compound: C[C@@H](O)[C@@H](C)Oc1nc(Nc2ccc([S@](=N)(=O)C3CC3)cc2)ncc1C(F)(F)F [Compound A, (2R,3R)-3-{[2-{[4-(R-cyclopropylsulphonimidoyl)phenyl]amino}-5-(trifluoromethyl)pyrimidin-4-yl]oxy}butan-2-ol]
IC50 (MCF 10A): 20 nM
IC50 (KPL-1): 6.44 nM
IC50 (Hs 578T): 16.8 nM
IC50 (ZR-75-1): 32.5 nM
IC50 (DU-4475): 37.3 nM
IC50 (ChaGo-K-1): 69.4 nM
IC50 (Caki2): 26 nM
IC50 (EVSA-T): 45 nM
